{
  "source": "patent US8198293B2",
  "about": "“Oxymatrine compositions and related methods for treating and preventing chronic infectious diseases” (priority 2008, dated 2012)",
  "key": {"[1]": {"test_system": "Mycobacterium avium complex (MAC)", "assay": "Case report: Mycobacterium avium complex infection of the lung", "format": "in vivo, human", "settings": "before oxymatrine, added to four-drug therapy", "description": "A person with known history of Mycobacterium avium complex (MAC) infection of the lung and bronchiectasis for several years was treated with clarithromycin, ethambutol, ciprofloxacin and rifabutin for about five years. […] Intravenous amikacin was added following right middle and left lingula lobectomy. In spite of the above therapy, sputum and repeat bronchial washing obtained by bronchoscopy grew MAC within three weeks. A computed tomography scan of the chest remained unchanged except for the post-surgical changes.\nBecause of persistent positive cultures despite the four drug therapies, the patient was started on oxymatrine, which they tolerated well. […] Sputum became clear in color then resolved. About two months after the start of oxymatrine, the patient had fevers, flu-like symptoms, increase in non-productive cough, bilateral uveitis and elevation of liver enzymes to 3.5 times normal values. The symptoms lasted two weeks and resolved after tapering dose of oxymatrine to 200 mg bid. Liver enzymes returned to normal within six weeks. […] The anti-MAC medications were discontinued after […] of oxymatrine therapy. The dose of oxymatrine was tapered to 100 mg tid at four and a half months of therapy and then stopped after six months of total therapy. The patient felt well at the six month follow-up."}, "[2]": {"test_system": "chronic enterovirus infection / chronic fatigue", "assay": "Case reports: treatment of chronic fatigue (Examples 2-5)", "format": "in vivo, human", "settings": "Example 5 patient, before oxymatrine", "description": "A person with episodes of diarrhea while traveling to Tonga developed severe respiratory infection soon thereafter. The symptoms consisted of fevers to 105° F., night sweats, diffuse myalgia, tachycardia, fatigue, sinus congestion and cough, and unresponsiveness to antibiotics. The patient developed profound fatigue thereafter and went on total disability three months after the onset of symptoms. Initial Coxsackie B virus (CBV) 3, CVB4 and echovirus 9 antibody titers were 1:320, 1:160, 1:80 (normal <1:10), respectively.\nThe patient could not work for the next 18 months. They were started on oxymatrine at 300 mg twice a day (bid). After taking oxymatrine for two months, they were able to take short walks, but still exhausted after one hour of activity requiring five hour naps. At the end of three months of therapy, they started having fevers of 104-105° F. for several days with marked decrease in diffuse myalgia. […] CVB3, CVB4 and echovirus antibody three months after therapy were 1:160, 1:160 and 1:20, respectively.\nA person who had recurrent episodes of debilitating fatigue became totally incapacitated after approximately 17 years. […] They went into remission but relapsed nine months later after developing a minor upper respiratory infection. They improved minimally after several months of bed rest, but was barely able to work six hours per day. They had brain fog, myalgia ( 7/10 pain) and was barely able to walk even 1-2 blocks.\nThree days after taking oxymatrine at a dose of 300 mg bid, the myalgia intensified ( 10/10 pain), especially one hour after taking the pills. One week after starting oxymatrine, routine laboratory tests including CBC, chemistry panel and creatine phosphokinase (CPK) were normal. They continued having significant fatigue and myalgia for the next three weeks, but the symptoms resolved one week after stopping the medication. Mild increase in myalgia recurred three days after resuming oxymatrine, but resolved after continuing the medication for the next two weeks. The patient felt well at the end of three months with minimal discomfort in a few muscle groups.\nSevere myalgia recurred after resuming vigorous exercise for three weeks while taking oxymatrine. They had to stop exercise for the two months allowing cessation of myalgia. After taking oxymatrine for six months, the patient felt well. Over the next six months after stopping the medication, the patient continuously performed heavy physical activities without significant difficulty. After developing another episode of upper respiratory symptoms, their symptoms relapsed. They have resumed oxymatrine but experienced increasing myalgia as the fatigue improved.\nA person with a known history of frequent respiratory infections and vasovagal syncope developed respiratory infection, which was followed by bedridden fatigue. Enteroviral protein was detected in the stomach biopsy consistent with chronic enterovirus infection. […] After vigorous exercise, they would still have relapses of bedridden fatigue for one day but continued to work 10-12 hours per day for the next 12 months, walking two miles per day. Laboratory tests were normal while on therapy.\nA person developed debilitating fatigue, sore throat, oral ulcers, vertigo, headaches and cognitive dysfunction two months after having a flu-like illness. […] Approximately four years later, the patient started taking oxymatrine. After an initial increase of gastrointestinal symptoms for the first two weeks, the patient tolerated 500 mg per day of oxymatrine.\nThe symptoms continued for two weeks and resolved after stopping oxymatrine. […] They continued to improve for 12 months after taking the medication."}, "[3]": {"test_system": "Coxsackievirus B myocarditis", "settings": "intravenous; chronic Coxsackievirus B myocarditis; 0% in placebo group; cited from earlier work"}, "[4]": {"test_system": "coxsackievirus B", "settings": "in vitro, cell cultures; mechanism not defined; cited from earlier work"}},
  "data": [
    {"molecule": "gamma interferon", "values": [
      {"measurement": "benefit on persistent positive sputum culture for MAC", "setting": "[1]", "value": "without significant benefit"}
    ]},
    {"molecule": "CC(C)[C@H](N)C(=O)OCCOCn1cnc2c(=O)[nH]c(N)nc21", "note": "[valacyclovir]", "values": [
      {"measurement": "response of fatigue and other symptoms", "setting": "[2]", "value": "did not respond"}
    ]},
    {"molecule": "O=C1CCC[C@@H]2[C@H]3CCCN4CCC[C@@H](CN12)[C@@H]34", "note": "[matrine]", "values": [
      {"measurement": "patients with improvement of cardiac function, increase in lymphocyte number and function, and loss of viral markers", "setting": "[3]", "value": "more than 90%"},
      {"measurement": "growth inhibition of coxsackievirus B", "setting": "[4]", "value": "growth inhibition"}
    ]}
  ]
}
